Literature values in patent US12454539B2, “Controlled-delivery cromakalim prodrugs” (Qlaris Bio, Inc., priority 2019, dated 2025).

Tests used:
[1] = test system: normotensive mouse model; settings: once daily dosing
[2] = test system: isolated rat mesenteric lymph vessels; settings: increasing concentrations
[3] = test system: KATP channels; settings: membrane patches from rabbit mesenteric arterial smooth muscle cells, in the presence of ATP

solubility in water	SMILES	intraocular pressure (IOP) [1]	contractions of lymph vessels [2]	increase of open-state probability (Popen) of single KATP channels [3]
more water soluble than levcromakalim	CC1(C)Oc2ccc(C#N)cc2[C@@H](N2CCCC2=O)[C@@H]1OP(=O)(O)O [CKLP1]	lower intraocular pressure		
	CC1(C)Oc2ccc(C#N)cc2C(N2CCCC2=O)C1O (stereo not shown) [Cromakalim, cromakalim]		abolished the contractions of the vessels	more than 9 fold
